# Source: US9067888B2, “Inhibitors of protein kinases” (Ingenium Pharmaceuticals GmbH, priority 2010, dated 2015)
# Columns and labels:
# [1] = system: TNF-alpha inducible reporter gene; test: Inhibition of TNF-alpha-induced reporter gene expression (luciferase) in HeLa-derived cell line; assay type: cell-based, human; conditions: Homo sapiens, 6 h, remaining luciferase activity in presence of 3 μM of compound as ratio of DMSO-treated cells, TNF-alpha 50 ng/ml, read-out: Efficacy (ratio to DMSO) TNF-alpha induced response
# Text: TNF-alpha responsive cell lines like the human HeLa cell line can be used to study cellular responses to TNF-alpha, e.g. transcriptional regulation of a transfected TNF-alpha responsive reporter gene, and effects of kinase inhibitors on this response.
# In order to analyse compound effects on TNF-alpha mediated transcriptional response, a HeLa-derived cell line stably transfected with a TNF-alpha inducible reporter gene was used (Panomics Catalog No. RC0013). The cell line was obtained by co-transfection of a luciferase reporter gene (Panomics P/N LR0051) and pHyg into human cervical epithelial HeLa cells, followed by hygromycin selection. TNFα-induced luciferase activity was used to select clones from the hygromycin-resistant cells. The cell line was maintained and stimulated according to the manufacturer's instructions. Briefly, cells were seeded at 5×10^5/well in 1 ml of growth medium in a 12-well plate and incubated in a humidified incubator at 37° C. and 5% CO2 for 24 hours. Medium was replaced with 1 ml of serum free medium and compounds were added up to concentrations of […]. After 1 hour of incubation, TNF-alpha was added to achieve a final concentration of 50 ng/ml. The culture dish was further incubated in a humidified incubator at 37° C. and 5% CO2 for 6 hours, medium was removed and 100 μL of lysis buffer were added to each well and the assay for luciferase activity was performed according to assay manufacturer's (Promega P/N E1500) recommendations. For more information about this cell line, go to worldwide website www(dot)panomics.com.
# Compound effects on TNF-alpha-induced reporter gene expression is shown in column 6 in Table 1 given below. Indicated is the remaining luciferase activity after incubation in presence of 3 μM of compound as a ratio of the activity of DMSO-treated cells without compound. Specifically, it was intended to distinguish cell permeable compounds from other compounds having significant inhibitory potency with regard to other CDKs, but fail to penetrate cells or are unstable under the conditions of the experiment.
# [2] = biological target: CDK9 (Homo sapiens (Human), UniProt P50750); test: In vitro kinase inhibition, KinaseProfiler service of Millipore, residual activity; assay type: biochemical; conditions: for remaining activity at 0.01 µM: residual activity at 10 nM compound, read-out: CDK9 10 nM (RA in %); for remaining activity at 0.1 µM: residual activity at 100 nM compound, read-out: CDK9 100 nM (RA in %)
# CDK9, sequence (P50750 whole entry): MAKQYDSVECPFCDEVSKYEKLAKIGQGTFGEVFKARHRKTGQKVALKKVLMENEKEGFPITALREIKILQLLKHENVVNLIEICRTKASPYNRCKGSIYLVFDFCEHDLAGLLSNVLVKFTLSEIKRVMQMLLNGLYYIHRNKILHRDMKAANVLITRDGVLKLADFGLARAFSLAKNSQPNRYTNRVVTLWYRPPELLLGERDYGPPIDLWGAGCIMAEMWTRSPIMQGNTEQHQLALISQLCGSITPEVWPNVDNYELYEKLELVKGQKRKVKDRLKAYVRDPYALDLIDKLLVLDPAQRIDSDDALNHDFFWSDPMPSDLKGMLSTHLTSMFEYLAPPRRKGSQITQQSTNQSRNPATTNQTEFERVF
# CDK9, sequence (O60563 whole entry partner): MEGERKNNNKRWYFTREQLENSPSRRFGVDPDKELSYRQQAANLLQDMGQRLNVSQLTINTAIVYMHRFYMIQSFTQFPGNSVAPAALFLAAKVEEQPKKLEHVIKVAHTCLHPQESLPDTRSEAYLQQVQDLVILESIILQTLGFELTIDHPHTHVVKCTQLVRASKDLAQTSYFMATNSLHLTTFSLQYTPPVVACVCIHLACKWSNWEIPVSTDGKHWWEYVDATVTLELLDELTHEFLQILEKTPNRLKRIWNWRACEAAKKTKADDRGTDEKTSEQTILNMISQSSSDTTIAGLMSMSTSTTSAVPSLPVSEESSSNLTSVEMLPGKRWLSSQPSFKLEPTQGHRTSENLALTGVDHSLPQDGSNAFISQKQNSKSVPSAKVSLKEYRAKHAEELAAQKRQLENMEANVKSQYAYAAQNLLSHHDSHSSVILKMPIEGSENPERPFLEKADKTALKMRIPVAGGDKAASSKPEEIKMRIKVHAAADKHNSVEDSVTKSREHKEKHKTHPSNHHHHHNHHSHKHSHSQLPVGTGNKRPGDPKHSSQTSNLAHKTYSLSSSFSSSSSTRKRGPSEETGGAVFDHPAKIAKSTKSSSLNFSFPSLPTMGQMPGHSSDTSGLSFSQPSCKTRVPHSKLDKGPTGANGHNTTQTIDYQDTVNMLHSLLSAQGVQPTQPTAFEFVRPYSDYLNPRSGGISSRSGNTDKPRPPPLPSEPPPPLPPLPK
# Text: In vitro kinase assay analysis may be performed using standard techniques described in the art. These techniques are also used by commercial services providers in order to offer in vitro kinase activity assay services, e.g. the assays offered by Millipore Inc. (worldwide website www(dot)millipore.com), ProQinase GmbH (worldwide website www(dot)proqinase.de) and others.
# In vitro kinase inhibition results shown in columns 7 to 9 in Table 1 were obtained by employing the KinaseProfiler™ service of Millipore and used to select compounds displaying specificity for CDK9. Specifically, it was intended to distinguish the CDK9-specific compounds from other compounds having significant inhibitory potency also with regard to other CDKs.
Compound,activity at 3 µM [1] [%],remaining activity at 0.01 µM [2] [%],remaining activity at 0.1 µM [2] [%]
"COc1cc(F)ccc1-c1ccnc(NC(=O)C(C)c2ccc(N3CCN(C)CC3)cc2)c1 (stereo not drawn) [Example 27, N-(4-(4-Fluoro-2-methoxyphenyl)pyridin-2-yl)-2-(4-(4-methylpiperazin-1-yl)phenyl)propanamide]",8,65,8
"COc1cc(F)ccc1-c1ccnc(NC(=O)C(C)Cc2ccc(N3CCN(C)CC3)cc2)c1 (stereo not drawn) [Example 28, 2-(4-(4-Methylpiperazin-1-yl)benzyl)-N-(4-(4-fluoro-2-methoxyphenyl)-pyridin-2-yl)propanamide]",121,88,49
"COc1cc(F)ccc1-c1ccnc(NC(=O)CC(C)c2ccc(N3CCN(C)CC3)cc2)c1 (stereo not drawn) [Example 29, N-(4-(4-Fluoro-2-methoxyphenyl)pyridin-2-yl)-3-(4-(4-methylpiperazin-1-yl)phenyl)butanamide]",105,95,39
"COc1cc(F)ccc1-c1ccnc(NC(=O)[C@H]2CC[C@@H](Nc3ccccn3)CC2)c1 [Example 30, N-(4-(4-Fluoro-2-methoxyphenyl)pyridin-2-yl)-4-(pyridin-2-ylamino)-cis-cyclohexanecarboxamide]",3,29,4
"COc1cc(F)ccc1-c1ccnc(NC(=O)Cc2ccnc(N3CCN(C)CC3)c2)c1 [Example 31, N-(4-(4-Fluoro-2-methoxyphenyl)pyridin-2-yl)-2-(2-(4-methylpiperazin-1-yl)pyridin-4-yl)acetamide]",4,58,8
"COc1cc(F)ccc1-c1ccnc(NC(=O)[C@H]2CC[C@@H](Nc3ccncc3)CC2)c1 [Example 32, cis-N-(4-(4-Fluoro-2-methoxyphenyl)pyridin-2-yl)-4-(pyridin-4-ylamino)-cyclohexanecarboxamide]",4,34,4
"COc1cc(F)ccc1-c1ccnc(NC(=O)[C@@H]2CC[C@H](NC(C)=O)C2)c1 [Example 34, (1R,3S)-3-Acetamido-N-(4-(4-fluoro-2-methoxyphenyl)pyridin-2-yl)cyclopentanecarboxamide]",7,50,8
"COc1cc(F)ccc1-c1ccnc(NC(=O)[C@H]2CC[C@@H](Nc3nccs3)CC2)c1 [Example 35, cis-N-(4-(4-Fluoro-2-methoxyphenyl)pyridin-2-yl)-4-(thiazol-2-ylamino)-cyclohexanecarboxamide]",2,36,4
"COc1cc(F)ccc1-c1ccnc(NC(=O)[C@H]2CC[C@@H](Nc3ccccc3)CC2)c1 [Example 36, cis-N-(4-(4-Fluoro-2-methoxyphenyl)pyridin-2-yl)-4-(phenylamino)-cyclohexanecarboxamide]",26,59,12
"COc1cc(F)ccc1-c1ccnc(NC(=O)[C@@H]2CC[C@H](NCc3ccccc3)C2)c1 [Example 37, (1R,3S)-3-(Benzylamino)-N-(4-(4-fluoro-2-methoxyphenyl)pyridin-2-yl)cyclopentanecarboxamide]",2,20,2
"COc1cc(F)ccc1-c1ccnc(NC(=O)[C@H]2CC[C@@H](NCc3ccccc3)CC2)c1 [Example 38, cis-4-(Benzylamino)-N-(4-(4-fluoro-2-methoxyphenyl)pyridin-2-yl)cyclo-hexanecarboxamide]",2,65,4
"COc1cc(F)ccc1-c1ccnc(NC(=O)[C@@H]2CC[C@H](Nc3ccccc3)C2)c1 [Example 39, (1R,3S)—N-(4-(4-Fluoro-2-methoxyphenyl)pyridin-2-yl)-3-(phenylamino)-cyclopentanecarboxamide]",5,60,6
"COc1cc(F)ccc1-c1ccnc(NC(=O)[C@@H]2CCC[C@H](NC(C)=O)C2)c1 [Example 40, (1R,3S)-3-Acetamido-N-(4-(4-fluoro-2-methoxyphenyl)pyridin-2-yl)cyclohexanecarboxamide]",46,89,38
"COc1cc(F)ccc1-c1ccnc(NC(=O)[C@H]2CC[C@@H](NC(C)=O)C2)c1 [Example 41, (1S,3R)-3-Acetamido-N-(4-(4-fluoro-2-methoxyphenyl)pyridin-2-yl)cyclopentanecarboxamide]",3,38,8
